Laboratory results as given in patent publication US9708336B2, “Metallo-beta-lactamase inhibitors” (priority 2014, dated 2017).
Like-named read-outs stand apart in the source and are kept apart here.

Legend:
NDM-1 = NDM-1 (Klebsiella pneumoniae, UniProt C7C422); test: biochemical; type: biochemical; conditions: read-out: NDM-1 IC50
IMP-1 = IMP-1 (Serratia marcescens, UniProt P52699); test: biochemical; type: biochemical; conditions: read-out: IMP-1 IC50
VIM-1 = VIM-1 (Pseudomonas aeruginosa (strain ATCC 15692 / DSM 22644 / CIP 104116 / JCM 14847 / LMG 12228 / 1C / PRS 101 / PAO1), UniProt A0A0F7KYQ8); test: Enzyme activity: determination of IC50, fluorescence assay with CCF2-FA substrate (VIM-1); type: biochemical
[1] = tested on: Escherichia coli expressing NDM-1 (CLB30016); test: Antibiotic potentiation activity: synergistic concentration (MITC95) with imipenem, OD600 growth; type: cell-based; conditions: for Escherichia coli expressing NDM-1 (CLB 30016) MITC95: concentration giving 95% inhibition of bacterial growth
Method in brief: (§1)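 In 1.1× CAMHB, clinical isolates from overnight plates were challenged with test compound alongside imipenem at an assay concentration of 4 μg/ml, sometimes 1 μg/ml. Plates sat covered at 35 °C for 22–24 h prior to spectrophotometric reading.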

[2] = tested on: Klebsiella pneumoniae expressing VIM-1 (IHMA599644); test: as above; type: cell-based; conditions: for Klebsiella pneumoniae expressing VIM-1 (IHMA 599644) MITC95: concentration giving 95% inhibition of bacterial growth
Method in brief: as §1

[3] = tested on: Serratia marcescens expressing IMP-1 (CL5741); test: as above; type: cell-based; conditions: for Serratia marcescens expressing IMP-1 (CL5741) MITC95: concentration giving 95% inhibition of bacterial growth
Method in brief: as §1

[4] = NDM-1 enzyme, CCF2-FA fluorescence assay
[5] = IMP-1 enzyme, CCF2-FA fluorescence assay
[6] = VIM-1 enzyme, CCF2-FA fluorescence assay, read-out: VIM-1 IC50
[7] = Escherichia coli expressing NDM-1 (CLB30016), 95% growth inhibition
[8] = Klebsiella pneumoniae expressing VIM-1 (IHMA599644), 95% growth inhibition
[9] = Serratia marcescens expressing IMP-1 (CL5741), 95% growth inhibition
[10] = NDM-1 enzyme, CCF2-FA substrate
[11] = IMP-1 enzyme, CCF2-FA substrate
[12] = VIM-1 enzyme, CCF2-FA substrate, read-out: VIM-1 IC50
[13] = (CLB30016, NDM-1), 95% growth inhibition
[14] = Klebsiella pneumoniae IHMA599644 (VIM-1), 95% growth inhibition
[15] = Serratia marcescens CL5741 (IMP-1), 95% growth inhibition
[16] = VIM-1 IC50, VIM-1 enzyme, CCF2-FA fluorescence assay
[17] = fluorescence assay with CCF2-FA substrate
[18] = fluorescence assay with CCF2-FA substrate, read-out: VIM-1 IC50

IMP-1, sequence (P52699 whole entry, looked up): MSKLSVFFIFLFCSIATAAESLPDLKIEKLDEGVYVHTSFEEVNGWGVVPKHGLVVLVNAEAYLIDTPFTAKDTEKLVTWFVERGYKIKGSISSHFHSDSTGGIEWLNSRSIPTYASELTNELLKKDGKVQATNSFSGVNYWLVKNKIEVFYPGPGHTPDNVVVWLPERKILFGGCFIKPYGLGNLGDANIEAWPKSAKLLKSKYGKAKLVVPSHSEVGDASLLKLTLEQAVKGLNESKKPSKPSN
NDM-1, sequence (C7C422 whole entry, looked up, species assumed): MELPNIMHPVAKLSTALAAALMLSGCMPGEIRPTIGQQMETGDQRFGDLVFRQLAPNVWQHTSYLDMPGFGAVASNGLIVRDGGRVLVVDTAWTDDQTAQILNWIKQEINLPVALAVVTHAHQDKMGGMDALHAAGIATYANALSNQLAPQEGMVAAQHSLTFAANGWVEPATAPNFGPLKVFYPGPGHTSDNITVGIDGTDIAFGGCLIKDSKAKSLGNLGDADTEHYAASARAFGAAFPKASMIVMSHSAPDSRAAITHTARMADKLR

SMILES | IC50 (NDM-1; [4]) | IC50 (IMP-1; [5]) | Escherichia coli MITC95 [1, 7] | Klebsiella pneumoniae MITC95 [2, 8] | Serratia marcescens MITC95 [3, 9] | IC50 (NDM-1; [10]) | IC50 (IMP-1; [11]) | IC50 (VIM-1; [12]) | Escherichia coli MITC95 [1, 13] | Klebsiella pneumoniae MITC95 [2, 14] | Serratia marcescens MITC95 [3, 15] | further results
NS(=O)(=O)c1cccc(-c2ccc(CNC[C@@]3(O)CCOC3)cc2)c1-c1nnn[nH]1 [Example 373, 4′-[({[(3S)-3-hydroxytetrahydrofuran-3-yl]methyl}amino)methyl]-2-(1H-tetrazol-5-yl)biphenyl-3-sulfonamide] | 11.3 nM | 247 nM | 1.563 µM | 50 µM | 3.125 µM |  |  |  |  |  |  | IC50 (VIM-1; [6]): 241 nM
NS(=O)(=O)c1c(C(F)(F)F)ccc([C@H]2CC[C@H](O)CC2)c1-c1nnn[nH]1 [Example 496] |  |  |  |  |  | 0.506 nM | 1.09 nM | 0.397 nM | 1.172 µM | 3.125 µM | 0.3906 µM | 
NS(=O)(=O)c1cccc(-c2ccc(CNCc3ccncn3)cc2)c1-c1nnn[nH]1 [Example 377, 4′-{[(pyrimidin-4-ylmethyl)amino]methyl}-2-(1H-tetrazol-5-yl)biphenyl-3-sulfonamide] | 5.27 nM | 73.7 nM | 1.563 µM | 200 µM | 3.125 µM |  |  |  |  |  |  | IC50 (VIM-1; [16]): 256 nM
Cc1cccn2c(-c3cccc(S(N)(=O)=O)c3-c3nnn[nH]3)cnc12 [Example 139, 3-(8-methylimidazo[1,2-a]pyridin-3-yl)-2-(1H-tetrazol-5-yl)benzenesulfonamide] |  |  |  |  |  |  |  |  |  |  |  | IC50 (NDM-1; [17]): 0.637 nM; IC50 (IMP-1; [17]): 98.4 nM; IC50 (VIM-1; [18]): 5.78 nM; Escherichia coli expressing NDM-1 (CLB 30016) MITC95 [1]: 0.1953 µM; Klebsiella pneumoniae expressing VIM-1 (IHMA 599644) MITC95 [2]: 12.5 µM; Serratia marcescens expressing IMP-1 (CL5741) MITC95 [3]: 6.25 µM
NS(=O)(=O)c1cccc(-c2ccc(CN3CCC(C(=O)O)C3)cc2)c1-c1nnn[nH]1 (stereo not drawn) [Example 343, 1-{[3′-sulfamoyl-2′-(1H-tetrazol-5-yl)biphenyl-4-yl]methyl}pyrrolidine-3-carboxylic acid] | 24.7 nM | 373 nM | 1.563 µM | 100 µM | 9.375 µM |  |  |  |  |  |  | IC50 (VIM-1; [6]): 1180 nM
NS(=O)(=O)c1nccc(N2CCC3(CC2)NCNC3=O)c1-c1nnn[nH]1 [Example 221, 4-(4-oxo-1,3,8-triazaspiro[4.5]dec-8-yl)-3-(1H-tetrazol-5-yl)pyridine-2-sulfonamide] |  |  |  |  |  |  |  |  |  |  |  | IC50 (NDM-1; [17]): 251 nM; IC50 (IMP-1; [17]): 6170 nM; IC50 (VIM-1; [18]): 6170 nM; Escherichia coli expressing NDM-1 (CLB 30016) MITC95 [1]: 4.688 µM; Klebsiella pneumoniae expressing VIM-1 (IHMA 599644) MITC95 [2]: 200 µM; Serratia marcescens expressing IMP-1 (CL5741) MITC95 [3]: 100 µM
NS(=O)(=O)c1cccc(-c2ccc(N3CCC(O)C3)nc2)c1-c1nnn[nH]1 (stereo not drawn) [Example 633, 3-[6-(3-hydroxypyrrolidin-1-yl)-3-pyridyl]-2-(1H-tetrazol-5-yl)benzenesulfonamide] |  |  |  |  |  | 4.88 nM | 66.4 nM | 120 nM | 0.125 µM | 37.5 µM | 4.833 µM | 
Nc1ccc(-c2ccc(C[C@H]3CC[C@H](N)CC3)c(S(N)(=O)=O)c2-c2nnn[nH]2)cn1 [Example 575, 6-(((1r,4r)-4-aminocyclohexyl)methyl)-3-(6-aminopyridin-3-yl)-2-(1H-tetrazol-5-yl)benzenesulfonamide] |  |  |  |  |  | 3.15 nM | 59.5 nM | 6.98 nM | 0.3906 µM | 6.25 µM | 3.125 µM | 
NS(=O)(=O)c1c(C(F)(F)F)ccc(N2CCC(C3CCNCC3)CC2)c1-c1nnn[nH]1 [Example 779, 3-[4-(4-piperidyl)-1-piperidyl]-2-(1H-tetrazol-5-yl)-6-(trifluoromethyl) benzenesulfonamide] |  |  |  |  |  |  |  |  |  |  |  | IC50 (NDM-1; [17]): 6.42 nM; IC50 (IMP-1; [17]): 6.7 nM; IC50 (VIM-1; [18]): 0.11 nM; Escherichia coli MITC95 ([1]; CLB30016 (NDM-1), 95% inhibition of bacterial growth): 1.172 µM; Klebsiella pneumoniae MITC95 ([2]; IHMA599644 (VIM-1), 95% inhibition of bacterial growth): 2.344 µM; Serratia marcescens MITC95 ([3]; CL5741 (IMP-1), 95% inhibition of bacterial growth): 0.3906 µM
NS(=O)(=O)c1c(CC[C@H]2CC[C@H](N)CC2)ccc(-c2ccc(C3CCNCC3)cc2)c1-c1nn[nH]n1 [Example 461, 4-(2-((1r,4s)-4-aminocyclohexyl)ethyl)-4′-(piperidin-4-yl)-2-(2H-tetrazol-5-yl)-[1,1′-biphenyl]-3-sulfonamide] | 1.92 nM | 4.07 nM | 1.563 µM | 4.688 µM | 1.563 µM |  |  |  |  |  |  | IC50 (VIM-1; [6]): 1.67 nM
NS(=O)(=O)c1c(CC2CCNCC2)ccc(-c2ccc(C3CCN(CC4CNC4)CC3)cc2)c1-c1nn[nH]n1 [Example 470, 4′-(1-(azetidin-3-ylmethyl)piperidin-4-yl)-4-(piperidin-4-ylmethyl)-2-(2H-tetrazol-5-yl)-[1,1′-biphenyl]-3-sulfonamide] | 27 nM | 3.23 nM | 0.7813 µM | 12.5 µM | 1.563 µM |  |  |  |  |  |  | IC50 (VIM-1; [6]): 101 nM
CC(=O)NC1CCN(c2ccc(-c3cccc(S(N)(=O)=O)c3-c3nnn[nH]3)cn2)C1 (stereo not drawn) [Example 623, N-[1-[5-[3-sulfamoyl-2-(1H-tetrazol-5-yl)phenyl]-2-pyridyl]pyrrolidin-3-yl]acetamide] |  |  |  |  |  | 7.94 nM | 79.5 nM |  | 1.953 µM | 150 µM | 6.25 µM | IC50 (VIM-1; VIM-1 IC50, VIM-1 enzyme, CCF2-FA substrate): 207 nM
NS(=O)(=O)c1c(C(F)(F)F)ccc(-c2ccc3c(c2)CNC3)c1-c1nnn[nH]1 [Example 715, 3-(2,3-dihydro-1H-isoindol-5-yl)-2-(1H-tetrazol-5-yl)-6-(trifluoromethyl)benzenesulfon-amide] |  |  |  |  |  | 25.3 nM | 27.4 nM | 0.729 nM | 6.25 µM | 3.125 µM | 12.5 µM | 
NS(=O)(=O)c1cccc(-c2ccc(CNCC3(O)CC3)cc2)c1-c1nnn[nH]1 [Example 380, 4′-({[(1-hydroxycyclopropyl)methyl]amino}methyl)-2-(1H-tetrazol-5-yl)biphenyl-3-sulfonamide] | 22.2 nM | 335 nM | 1.563 µM | 62.5 µM | 4.688 µM |  |  |  |  |  |  | IC50 (VIM-1; [16]): 263 nM
NS(=O)(=O)c1c(C(F)(F)F)ccc([C@H]2CC[C@H](NC3CCC4(CCNCC4)CC3)CC2)c1-c1nnn[nH]1 [Example 689, 3-[4-(3-azaspiro[5.5]undec-9-ylamino)cyclohexyl]-2-(1H-tetrazol-5-yl)-6-(trifluoromethyl)benzene sulfonamide] |  |  |  |  |  | 26.8 nM | 52.1 nM | 6.43 nM | 6.25 µM | 12.5 µM | 6.25 µM | 
NS(=O)(=O)c1cccc(-c2cccc(S(N)(=O)=O)c2-c2nnn[nH]2)c1 [Example 118, 2-(1H-tetrazol-5-yl)-[1,1′-biphenyl]-3,3′-disulfonamide] |  |  |  |  |  |  |  |  |  |  |  | IC50 (NDM-1; [17]): 44.2 nM; IC50 (IMP-1; [17]): 1330 nM; IC50 (VIM-1; [18]): 492 nM; Escherichia coli expressing NDM-1 (CLB 30016) MITC95 [1]: 0.7813 µM; Klebsiella pneumoniae expressing VIM-1 (IHMA 599644) MITC95 [2]: 50 µM; Serratia marcescens expressing IMP-1 (CL5741) MITC95 [3]: 18.75 µM
NS(=O)(=O)c1c(C(F)(F)F)ccc([C@H]2CC[C@H](NC3CC4(CCNCC4)C3)CC2)c1-c1nnn[nH]1 [Example 685, 3-[4-(7-azaspiro[3.5]non-2-ylamino)cyclohexyl]-2-(1H-tetrazol-5-yl)-6-(trifluoromethyl)benzene sulfonamide] |  |  |  |  |  | 30 nM | 75.8 nM | 4.88 nM | 1.563 µM | 25 µM | 6.25 µM | 
Nc1ncc(-c2ccc(-c3cccc4sc(N)nc34)c(-c3nn[nH]n3)c2S(N)(=O)=O)s1 [Example 536, 3-(2-Aminobenzo[d]thiazol-4-yl)-6-(2-aminothiazol-5-yl)-2-(2H-tetrazol-5-yl)benzenesulfonamide] |  |  |  |  |  | 2.71 nM | 39.4 nM | 4.12 nM | 6.25 µM | 25 µM | 50 µM | 
NS(=O)(=O)c1c(C(F)(F)F)ccc(N2C[C@H](O)C[C@@H](O)C2)c1-c1nnn[nH]1 [Example 666, 3-[(3R,5R)-3,5-dihydroxypiperidin-1-yl]-2-(1H-tetrazol-5-yl)-6-(trifluoromethyl)benzenesulfonamide] |  |  |  |  |  | 57 nM | 150 nM | 14.7 nM | 2.344 µM | 12.5 µM | 4.688 µM | 
